From PubChem BioAssay (NCI)
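Exposure lasted 48 hours, with cells grown in 96-well plates and compounds tested at five concentrations. GI50 is the concentration that inhibits growth by half. At the TGI there is no net growth.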

Key:
Assay in all cases: growth of human tumour cells (NCI), 48 h
NCI-H23 lung = tested on: NCI-H23 lung
SW-620 colon = tested on: SW-620 colon
SK-MEL-5 melanoma = tested on: SK-MEL-5 melanoma
OVCAR-5 ovarian = tested on: OVCAR-5 ovarian
SNB-75 CNS = tested on: SNB-75 CNS
RXF 393 renal = tested on: RXF 393 renal
RPMI-8226 leukemia = tested on: RPMI-8226 leukemia
SR leukemia = tested on: SR leukemia
IGROV1 ovarian = tested on: IGROV1 ovarian
NCI-H522 lung = tested on: NCI-H522 lung

| Structure (SMILES) | GI50 (NCI-H23 lung) [µM] | TGI (NCI-H23 lung) [µM] | GI50 (SW-620 colon) [nM] | TGI (SW-620 colon) [µM] | GI50 (SK-MEL-5 melanoma) [µM] | TGI (SK-MEL-5 melanoma) [µM] | GI50 (OVCAR-5 ovarian) [µM] | TGI (OVCAR-5 ovarian) [µM] | GI50 (SNB-75 CNS) [nM] | TGI (SNB-75 CNS) [µM] | GI50 (RXF 393 renal) [nM] | TGI (RXF 393 renal) [µM] | GI50 (RPMI-8226 leukemia) [nM] | TGI (RPMI-8226 leukemia) [µM] | GI50 (SR leukemia) [nM] | TGI (SR leukemia) [µM] | GI50 (IGROV1 ovarian) [µM] | TGI (IGROV1 ovarian) [µM] | GI50 (NCI-H522 lung) [nM] | TGI (NCI-H522 lung) [µM] |
| --- | --- | --- | --- | --- | --- | --- | --- | --- | --- | --- | --- | --- | --- | --- | --- | --- | --- | --- | --- | --- |
| Nc1nc(Nc2ccc(OCc3cccc(F)c3)cc2)c2c(n1)[nH]c1ccc(O)cc12 | 4.12 | 22.2 | 2540 | 6.26 | 4.17 | 15.2 | 3.38 | 14.5 | 1530 | 3.01 | 1780 | 3.55 | 2160 | 5.55 | 2130 | 5.87 | 3.75 | 14.7 | 1990 | 4.67 |
| O=c1c2cc3c(=O)n(CCc4ccccc4CO)c(=O)c3cc2c(=O)n1CCc1ccccc1CO | – | > 100 | – | > 100 | – | > 100 | – | – | – | > 100 | – | > 100 | – | – | – | – | – | > 100 | – | > 100 |
| c1ccc([P+](Cc2csnn2)(c2ccccc2)c2ccccc2)cc1 | – | > 100 | – | > 100 | – | > 100 | – | > 100 | – | > 100 | – | > 100 | – | > 100 | – | > 100 | – | > 100 | – | > 100 |
| CCOC(=O)c1csc(NC(=O)CCCC#N)n1 | – | > 100 | – | > 100 | – | > 100 | – | > 100 | – | > 100 | – | > 100 | – | > 100 | – | > 100 | – | – | – | – |
| CCOC(=O)C1=C(C)NC(=O)N([N+](=O)[O-])C1c1ccccc1C(F)(F)F (stereo unspecified) | – | > 100 | – | > 100 | – | > 100 | – | > 100 | – | – | – | > 100 | – | 72.4 | – | > 100 | – | > 100 | – | – |
| Cc1cc(C)nc(NS(=O)(=O)c2ccc(Nc3c4ccccc4nc4c(C(=O)NCCO)cccc34)cc2)n1 | – | > 100 | – | > 100 | – | 36.6 | – | 91.7 | – | 21.6 | – | – | – | 36.5 | – | 56.1 | – | > 100 | – | 30 |
| COc1ccc(CN2C(=O)C(=O)N(C)C2=O)c2ccccc12 | – | > 10 | – | > 10 | – | > 10 | – | > 10 | – | > 10 | – | > 10 | – | > 10 | – | > 10 | – | > 10 | – | > 10 |
| O=C(NN1C(=O)CSC1c1ccc(Cl)c(Cl)c1)c1ccncc1 (stereo unspecified) | – | > 100 | – | > 100 | – | > 100 | – | > 100 | – | > 100 | – | > 100 | – | > 100 | – | – | – | > 100 | – | > 100 |
